Source: US20180051284A1, “INHIBITORS OF MIR-17-92 CLUSTER FOR ANTI-TUMOR ACTIVITY IN MULTIPLE MYELOMA AND OTHER MALIGNANCIES” (priority 2014, published 2018)
l = locked nucleic acid (LNA); d = 2'-deoxy (DNA)

Key:
[1] = tested on: RPMI-8226, KMS-12-BM and NCI-H929 cells; test: Cell viability by flow cytometry of 7-AAD stained cells, gapmer versus single miRNA inhibitors; assay type: cell-based, Human; conditions: transfection with 25 nM
Protocol: Commercial miRNA inhibitors for miR-17a, miR-18a, miR-19a, miR-19b, miR-20a and miR-92a were purchased from Ambion (Applied Biosystems, Calif., U.S.).
(§1) 3×10^5 cells were transfected using Neon Transfection System (Invitrogen, Calif.,U.S.), (2 pulses at 1150, 30ms). The transfection efficiency evaluated by flow-cytometric analysis relative to a FAM dye—labeled anti-miR—negative control reached 85% to 90%.
(§2) 7-aminoactinomycin was used to evaluate cell viability. The staining was performed according to manufacturer's instructions.
To this aim, we transfected three different MM cell lines with 25 nM of either gapmer_06 or miRNA inhibitors from Ambion or RNase free water as control.

[2] = tested on: RPMI-8226, KMS-12-BM and NCI-H929 MM cells; test: CCK-8 cell growth assay after transfection; assay type: cell-based, Human; conditions: transfection with 25 nM
Protocol: as §1
(§3) Cells were seeded in 100 μL (suspension cell lines) or 50 μL (adherent cell lines) of culture medium at a density ranging from 0,5 to 2,5×10^3 cells per well. Survival was evaluated by both Cell Counting Kit-8 colorimetric assay (CCK-8, Dojindo Molecular Technologies, Japan) and CellTiter-Glo Luminescent Cell Viability Assay (Promega Madison, Wis., USA). Assays were performed according to the manufacturer's instructions. The optical density (OD) was evaluated at wave length of 450 nm. Both OD and luminescence were recorded with the GloMax-multi detection system (Promega, Madison, Wis., USA).

NCI-H929 cells = test: Flow cytometry of 7-AAD stained cells after transfection; assay type: cell-based, Human; conditions: transfection 25 nM, as compared to RNase-free water
Protocol: as §1, §2

INA-6 cells = test: INA-6 SCID-hu model, serum shuIL-6R; assay type: in vivo, mice; conditions: I.P. 2 mg/kg at day 1-4-8-15-22; compared to controls
Protocol: The SCID-hu model was performed implanting human fetal long bone grafts sc into SCID mice (SCID-hu). Four weeks following bone implantation, 2.5×10^6 INA-6 multiple myeloma cells were injected directly into the human bone implant. Because INA-6 cells release soluble human IL-6 receptor (shuIL-6R), we used this marker to monitor tumor growth in SCID-hu mice.
Mouse sera were serially monitored for shulL-6R levels by ELISA (Quantikine […]; R&D Systems). Mice developed detectable serum shuIL-6R ˜4 weeks following INA-6 cell injection and then were […]. Three days after the last injection, blood samples were collected and analyzed (R&D Systems).
The in vivo activity of gapmer_06 was also evaluate in a orthotopic model of human MM using U266 cells, to explore the efficacy in relation to the microenvironment. Orthotopic murine model was performed by the use of NOD/SCID mice intravenously injected with luciferase gene-marked U266 cells. Tumor growth was monitored using IVIS LUMINA II Imaging System. […] Engraftment was determined by sacrificing mice after 10 weeks and analyzing bone marrow for luciferase gene-marked U266 cells. […] Mice were treated I.P. with gapmer_06 at concentration of 2 mg/kg at day 1-4-8-15-22, and serum shulL-6R levels were serially determined as a marker of tumor growth.

[3] = tested on: CD138+ plasma cells derived from MGUS patients; test: Cell viability (7-AAD) of MGUS plasma cells after gymnotic exposure; assay type: cell-based, Human; conditions: 6 days gymnotic exposure, 5 μM
Protocol: (§4) Following informed consent approved by our University Hospital Ethical Commitee, CD138+cells were isolated from the BM aspirates of both Monoclonal gammopathy of undetermined significance (MGUS) and myeloma patients by Ficoll-Hypaque density gradient sedimentation followed by antibody-mediated positive selection using anti-CD138 magnetic activated cell separation microbeads (Miltenyi Biotech, Gladbach, Germany). Purity of immunoselected cells were assessed by flow-cytometric analysis using a phycoerythrin-conjugated CD138 monoclonal antibody by standard procedures.
as §2

[4] = tested on: CD138+ primary MM cells from bone marrow aspirates of myeloma patients; test: Cell viability (7-AAD) of primary myeloma cells after gymnotic exposure; assay type: cell-based, Human; conditions: 6 days gymnotic exposure, 2.5, 5 or 10 μM; cultured with HS-5 stromal cells
Protocol: as §4, §2
CD138+malignant plasma cells derived from bone marrow aspirates of 11 myeloma patients were cultured in presence of human stromal HS-5 cells.

[5] = tested on: miR-17-92 primary transcripts and mature miRNA family members; test: q-RT-PCR after transfectant reagents-free (gymnotic) exposure; assay type: cell-based, Human; conditions: six days gymnotic exposure, 1 and 2,5 μM; two MM cell lines (NCI-H929); vs saline vehicle
Protocol: (§5) Cells were seeded at low plating density in order to reach confluence on the final day of the experiments (day 6). Cell number at plating ranged from 0.5 to 2.5×10^3 in 96-well plates, from 2.5 to 10×10^3 in 12-well plates and from 1 to 3×10^4 in 6-well plates.
(§6) The LNA/DNA Gapmers were used at concentrations ranging from 0.1 to 20 μM.
Reverse transcription (RT) of both primary and mature miRNAs was performed using TaqMan® MicroRNA Assays, following a procedure for multiplexing the RT step (Life Technologies, Publication Part Number 4465407). Briefly, 500 ng of total RNA, prepared with the TRIzol® Reagent (Invitrogen), underwent reverse transcription by the Taq-Man® MicroRNA RT Kit. In this reaction, the RT primer pool was composed by the individual RT primers for each microRNA belonging to the miR-17-92 cluster and two RT primers to allow the reverse transcription of the miR-17-92 primary miRNA. Real-time PCR was performed using TaqMan® MicroRNA Assays together with the TaqMan® Universal PCR Master Mix on an ViiA7 System (Life Technologies). Both primary and mature microRNAs expressions were relatively quantified using the 2-ΔΔCt method (Applied Biosystems User Bulletin No. 2), and expressed as the relative quantity of target miRNA normalized to the RNU44 (assay ID 001094) housekeeping gene. […] Relative expression was calculated using the comparative cross threshold (Ct) method.

MM cell lines = test: CCK-8 cell growth analysis after gymnotic exposure; assay type: cell-based, Human; conditions: six days gymnotic exposure, 100 nM to 20 μM; ten MM cell lines; units printed inside the value (nM lower, μM upper); read-out: IC50 values by CCK-8 assay, range over MM cell lines
Protocol: as §5, §6, §3

panel of MM cell lines = test: CCK-8 cell growth analysis of a panel of MM cell lines after transfection; assay type: cell-based, Human; conditions: transfection 50-25-12,5 nM; up to 96 hours
Protocol: as §1, §3

Substance: gapmer_06: LNA/DNA gapmer, SEQ ID 4 (14 mer): +T*+A*+C*T*T*G*C*T*T*G*G*+C*+T*+T; + LNA, * phosphorothioate (antisense TACTTGCTTGGCTT; sugars from the 5' end l3 d8 l3, all phosphorothioate, methylation of C not given here)
- biological effect on cell viability (flow cytometry, 7-AAD) compared with single miRNA inhibitors [1]: strongest biological effects
- biological effect on cell growth (CCK-8) compared with single miRNA inhibitors for miR-17/18a/19a/19b/20a/92a [2]: strongest biological effects
- cell growth inhibition (CCK-8 assay) ([2]; up to 96 hours, compared among the eight gapmers): strongest cell growth inhibition
- reduction of live cells (7-AAD) (NCI-H929 cells): 20%
- tumor growth (serum shuIL-6R levels) (INA-6 cells): significant tumor-growth inhibition
- cell viability (7-AAD) [3]: unaffected
- dead myeloma cells (7-AAD staining) [4]: significant increase of dead myeloma cells
- downregulation of primary transcript and mature single miRNAs (q-RT-PCR) [5]: downregulation of primary transcript as well as mature single miRNAs, in a dose dependent manner
- IC50 (MM cell lines): 500 to 8000 nM
- anti-proliferative activity (CCK-8 assay) (panel of MM cell lines): exerted anti-proliferative activity up to 96 hours after transfection in all myeloma cell lines tested
